Values after ≈ are worked out from the molar mass of the structure shown.
How the values were obtained:
Assay type in all cases: in vivo
Plasmopara viticola [1] = experiment: Antisporulant activity against vine downy mildew (Pva); details: foliar spray, 1 kg/ha; activity grade 1 or 2, not defined
Procedure: (j) Antisporulant Activity Against Vine Downy Mildew (Plasmopara viticola; Pva)
The test is a direct antisporulant one using a foliar spray. The lower surfaces of leaves of whole vine plants (cv Cabernet Sauvignon) are inoculated by spraying with an aqueous suspension containing 10^4 zoosporangia/ml 2 days prior to treatment with the test compound. The inoculated plants are kept for 24 hours in a high humidity compartment, and then 24 hours at glasshouse ambient temperature and humidity. When the plants are dry, infected leaves are sprayed on their lower surfaces with a solution of active material in 1:1 water/acetone containing 0.04% w/w "Triton X-155" (trade mark) (an octylphenol polyethoxylate surfactant). The spraying is carried out with a moving track sprayer with delivers 620 liter/ha, and the concentration of active material is calculated to give an application rate of 1 kg/ha. After spraying, the plants are returned to normal glasshouse conditions for 96 hours and are then transferred to the high humidity compartment for 24 hours to induce sporulation, prior to assessment. Assessment is visual and is based on the percentage of the leaf area covered by sporulation compared with that on control leaves.

[2] = system: Erysiphe graminis f.sp. hordei; experiment: Direct antisporulant activity against barley powdery mildew (Eg); set-up: scale not given here; details: foliar spray, 1 kg/ha; activity grade 1 or 2, not defined
Method in brief: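 Barley seedlings (cv. Golden Promise) were dusted with conidia one day before a foliar spray of compound. Plants were then held at ambient glasshouse conditions for up to 7 days. Sporulating leaf area (%) was scored against untreated control plants.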

Leptosphaeria nodorum = experiment: Direct antisporulant activity against wheat leafspot (Ln); set-up: scale not given here; details: foliar spray, 1 kg/ha; activity grade 1 or 2, not defined
Method in brief: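 Single-leaf wheat plants were spray-inoculated with 8×10^5 spores/ml and held 24 h at high humidity before foliar spray treatment. Plants were then kept 5 days in the glasshouse. Read-out is the percentage of leaf area sporulating, relative to untreated controls.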

Puccinia Recondita = experiment: Direct protectant activity against wheat brown rust (Pr); set-up: scale not given here; details: foliar spray, 1 kg/ha, 10 days; activity grade 1 or 2, not defined
Procedure: (i) Activity Against Wheat Brown Rust (Puccinia Recondita; Pr) The test is a direct protectant one using a foliar spray. […] The plants are then sprayed with the test compound at a dosage of 1 kg/ha using a track sprayer as described under (a). Test compounds are applied as solutions or suspensions in a mixture of acetone and water (50:50 v/v) containing 0.04% surfactant ("TWEEN 20"--Trade Mark). 18-24 hours after treatment, the seedlings are inoculated by spraying the plants from all sides with an aqueous spore suspension containing about 10^5 spores/ml. For 18 hours after inoculation, the plants are kept in high humidity conditions at a temperature of 20°-22° C. Thereafter, the plants are kept in ambient glasshouse conditions, that is, in moderate relative humidity and at a temperature of 20° C. The disease is assessed 10 days after inoculation on the basis of the percentage of the plant covered by sporulating pustules compared with that on the control plants.

Plasmopara viticola [3] = experiment: Direct protectant activity against vine downy mildew (Pvp); set-up: Pvp: direct protectant activity against vine downy mildew: scale not given here; details: foliar spray, 1 kg/ha; activity grade 1 or 2, not defined
Method in brief: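 Lower leaf surfaces of whole vine plants (cv Cabernet Sauvignon) were sprayed at 1 kg/ha in water/acetone with surfactant, then inoculated 24 h later with 10^4 zoosporangia/ml. Scored as % leaf area with sporulation versus control leaves.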

[4] = system: rice root nematode Meloidogyne graminicola; experiment: Nematicidal soil drench test (root knots in grain sorghum); details: knots in roots of grain sorghum S. bicolor
Procedure: (§1) The nematicidal activity of the compounds of Example 17 and 23 was investigated. They were tested against the rice root nematode Meloidogyne graminicola in a water screen whereby the effect of retaining the nematodes in a dilute aqueous solution of the compounds was studied, and in a soil drench test in which the propensity of these nematodes to cause knots in the roots of grain sorghum S. bicolor was studied as a function of concentration of the compounds applied to the soil. […] Thus in the water screen test it was determined that the minimum inhibitory concentration of the compound of Example 23 was 0.53 ppm.

[5] = system: rice root nematode Meloidogyne graminicola; experiment: Nematicidal water screen; details: for activity against the nematodes, water screen: nematodes retained in dilute aqueous solution
Procedure: as §1

Alternaria Solani = experiment: Direct protectant activity against tomato early blight (As); set-up: As: activity against tomato early blight: scale not given here; details: for As: activity against tomato early blight: foliar spray as under (a), 8 days, activity grade 1 or 2, not defined; as to As: activity against tomato early blight: dose 1000 g/ha
Botrytis cinerea = experiment: Direct protectant activity against vine grey mould (Bcp); details: for Bcp: direct protectant activity against vine grey mould: foliar spray, 1 kg/ha, activity grade 1 or 2, not defined
From the text: (b) Direct Protectant Activity Against Vine Grey Mould (Botrytis cinerea; Bcp) The test is a direct protectant one using a foliar spray and is effected as described under (a), with the difference that the leaves are inoculated by spraying with an aqueous solution containing 10^5 conidia/ml.

Plasmopara viticola [6] = experiment: Translaminar protectant test, vine downy mildew (Pvt); details: secondary screening
From the text: The fungicidal activity of certain of the compounds was investigated further, in secondary screening.

Structure (SMILES) | Other: Pva, antisporulant activity against vine downy mildew (Plasmopara viticola [1]) | Eg: activity against barley powdery mildew [2] | Ln: activity against wheat leafspot (Leptosphaeria nodorum) | Pr: activity against wheat brown rust (Puccinia Recondita) | Pvp: direct protectant activity against vine downy mildew (Plasmopara viticola [3]) | As: activity against tomato early blight (Alternaria Solani) | other results
CC1Oc2c(cccc2[N+]([O-])=NC#N)C1C (stereo not shown) [Example 9] | 1 | 1 | 1 |  |  |  | 
N#CN=[N+]([O-])c1cc(Cl)cc2c1OC(CCl)C2 (stereo not shown) [Example 10] |  |  | 1 | 2 | 2 |  | 
N#CN=[N+]([O-])c1cccc2c3c(oc12)CCCC3 [Example 17] |  |  | 1 | 1 | 2 | 1 | activity against the nematodes, soil drench test [4]: activity against the nematodes; activity against the nematodes, water screen [5]: activity against the nematodes
N#CN=[N+]([O-])c1cc(Cl)cc2c1OC(CO)C2 (stereo not shown) [Example 11] |  |  |  | 1 | 2 |  | 
N#CN=[N+]([O-])c1ccc2oc(=O)ccc2c1 [Example 1] |  |  | 1 | 2 | 2 | 2 | Bcp: direct protectant activity against vine grey mould (Botrytis cinerea): 1; activity against Pvt (Plasmopara viticola [6]): high activity; activity against As (Alternaria Solani; secondary screening): high activity
Cc1cc2cc([N+]([O-])=NC#N)ccc2o1 [Example 23] | 2 | 1 |  | 2 |  | 1 | activity against the nematodes, soil drench test [4]: activity against the nematodes; MIC ([5]; Meloidogyne graminicola, water screen, read-out: minimum inhibitory concentration, water screen): 0.53 µg/mL (≈ 2.63 µM); activity against the nematodes, water screen [5]: activity against the nematodes
CC1Cc2cc(Cl)cc([N+]([O-])=NC#N)c2O1 (stereo not shown) [Example 6] |  |  | 1 | 2 | 2 | 1 | 
Cc1cc2cccc([N+]([O-])=NC#N)c2o1 [Example 16] |  |  |  | 1 | 2 | 2 | Bcp: direct protectant activity against vine grey mould (Botrytis cinerea): 2; activity against Bcp (Botrytis cinerea; secondary screening): high activity; activity against Pvt (Plasmopara viticola [6]): high activity
N#CN=[N+]([O-])c1cc(Cl)cc2c1OCC=C2 [Example 26] | 2 | 2 |  | 1 | 2 |  | Bcp: direct protectant activity against vine grey mould (Botrytis cinerea): 2; activity against Pvt (Plasmopara viticola [6]): high activity
CC1(C)Cc2cc(Cl)cc([N+]([O-])=NC#N)c2O1 [Example 4] |  |  | 1 | 2 | 2 |  | 
CC1(C)C=Cc2cc(F)cc([N+]([O-])=NC#N)c2O1 [Example 29] | 2 | 1 |  |  |  |  | 
CC1Oc2c(cc(Cl)cc2[N+]([O-])=NC#N)C1C (stereo not shown) [Example 5] | 2 | 1 | 1 | 2 | 2 |  | 
Cc1oc2c([N+]([O-])=NC#N)cccc2c1C [Example 18] |  | 1 |  | 2 | 2 | 2 | 

From patent publication US5376679A, “Bicyclic or tricyclic biocidal compounds” (Shell Internationale Research Maatschappij B.V., priority 1988, dated 1994)
